Data: patent US9061994B1, “Materials and methods useful to induce vacuolization, cell death, or a combination thereof” (The University of Toledo, priority 2011, dated 2015)
Entries after “also recorded” stand apart in the source; their conditions may differ. Read-outs that look alike come from different tables or passages of the source.

Tests used:
Format in all cases: cell-based, human
[1] = test system: U251 glioblastoma cells; assay: Trypan blue dye-exclusion viability assay; conditions: for cell viability, in words: 10 μM, 2 days; for viability at 10 µM: Homo sapiens, U-251, 48 h, each compound at 10 μM for 2 days, mean ± SD of three cultures
Description: To directly compare the effects of different compounds on cell viability, the trypan blue dye-exclusion assay was utilized to distinguish live (unstained) from dead (blue) cells. U251 cells were seeded in 35 mm diameter dishes at a density of 100,000 cells/dish. Twenty-four hours later, test compounds were added in fresh medium at a final concentration of […] received an equivalent volume of vehicle (DMSO). […] At the end of the incubation, floating and adherent cells were combined and collected by centrifugation. Cells were washed with Hank's balanced salt solution (HBSS) and incubated with 0.2% trypan blue solution (Sigma, St. Louis, Mo.) for 5 min at room temperature. The percentage of dead cells was determined by light microscopy using a hemocytometer. Three separate cultures were assayed for each compound.
Cells were seeded in 35 mm dishes and treated for 48 h with compounds at a final concentration of […] blue dye-exclusion assays were performed as described in the methods. Values are the mean±SD of separate assays performed on three parallel cultures.

[2] = test system: U251 glioblastoma cells; assay: Cell morphology / vacuolization by phase-contrast microscopy
[3] = test system: U251 glioblastoma cells; assay: Sulforhodamine B (SRB) growth inhibition assay; conditions: for GI50: Homo sapiens; for growth inhibitory (GI) activity, in words: 48 h SRB, Table 1, Table 2 (FIG. 64), FIG. 63
Description: Cells experiencing methuosis initially undergo extreme cytoplasmic vacuolization which can be readily assessed by phase contrast microscopy. As viability is compromised (usually between 24-48 h), the cells detach from the culture surface and lose membrane integrity. […] Although methuosis can occur in a broad spectrum of human tumor cell lines, SAR studies were carried out with U251 glioblastoma cells. Therefore, this cell line was used in the present evaluation.
Total protein in adherent cells was measured by the sulforhodamine B (SRB) colorimetric assay, following standard procedures for anticancer drug screening used by the U.S. National Cancer Institute. […] On the day after plating, four wells were assayed to establish a pre-drug (time-0) baseline. Test compounds were diluted as described above and added to the remaining wells. The medium and compounds were replenished after 24 hr. SRB assays were performed at a 48 h endpoint as described, using a SpectraMax Plus 384 plate reader (Molecular Devices, Sunnyvale, Calif.) to determine absorbance at 515 nm.
Cells were seeded in 96-well plates as described in the methods. After 24 h, each compound was added at the indicated concentrations and SRB assays were performed after an additional 48 h. Each point represents the mean±SD of values from four wells. The dotted line on each graph indicates the average absorbance of four wells sampled at time-0 (i.e., the time that the compounds were added).
The human U251 glioblastoma cell line was obtained from the DCT Tumor Repository (National Cancer Institute, Fredrick, Md.). […] All test compounds were dissolved in DMSO and serially diluted in DMSO so that the desired final drug concentrations could be achieved by making a 1/1000 dilution into the culture medium. One day after plating, four wells were assayed to establish a pre-drug (time-0) baseline. At the same time, fresh medium containing test compounds was added to the remaining wells. Control wells received DMSO alone. SRB assays were performed at a 48 h endpoint. To minimize the impact of potential variations in stability among the compounds, medium with test compound was replenished after the first 24 h.

[4] = test system: U251 glioblastoma cells; assay: SAR comparison of methuosis induction (vacuolization, MTT viability, colony formation) versus MIPP; conditions: 10 μM, morphology 24 h and 48 h, MTT 48 h, colony formation (FIGS. 36, 48)
Text: Analogs based on the α,β-unsaturated ketone core were designed from Claisen-Schmidt condensations between indole-3-carboxaldehydes and aromatic ketones. Such aldol condensations are known to proceed well employing secondary amines as catalysts. Initially, the orientation of the pyridine nitrogen was investigated.

[5] = concentration not singled out ([…] and 10 μM or as in figure)

## CCCc1[nH]c2ccc(OC)cc2c1/C=C/C(=O)c1ccncc1 [107b, trans-3-(5-methoxy-2-propylindol-3-yl)-1-(4-pyridinyl)-2-propen-1-one]
[1]
  cell viability, in words: only minimally affected
  viability at 10 µM: 83.9 ± 2.3%
[2]; 10 μM
  cell morphology / vacuolization: extensively vacuolated
[3]; U-251, 48 h, read-out: GI50
  GI50: 15.3 µM

## COc1ccc2[nH]c(C(C)C)c(/C=C/C(=O)c3ccncc3)c2c1 [107c, trans-3-(2-isopropyl-5-methoxyindol-3-yl)-1-(4-pyridinyl)-2-propen-1-one]
[1]
  cell viability, in words: only minimally affected
  viability at 10 µM: 78.8 ± 1.1%
[2]; 10 μM
  cell morphology / vacuolization: extensively vacuolated
[3]; U-251, 48 h, read-out: GI50
  GI50: > 20 µM

## COc1ccc2[nH]c(CC(C)C)c(/C=C/C(=O)c3ccncc3)c2c1 [107d, trans-3-(2-isobutyl-5-methoxyindol-3-yl)-1-(4-pyridinyl)-2-propen-1-one]
[1]
  cell viability, in words: only minimally affected
  viability at 10 µM: 87.4 ± 1.5%
[2]; 10 μM
  cell morphology / vacuolization: extensively vacuolated
[3]; U-251, 48 h, read-out: GI50
  GI50: 16.6 µM

## CCCCOc1ccc2[nH]c(C)c(/C=C/C(=O)c3ccncc3)c2c1 [402d, trans-3-(5-butoxy-2-methylindole-3-yl)-1-(4-pyridinyl)-2-propen-1-one]
[2]; [5]
  cell morphology / vacuolization: produced much fewer and smaller vacuoles and had little effect on cell density
[3]; U251
  growth inhibitory (GI) activity, in words: markedly reduced; also recorded: complete lack of GI activity

## Cc1[nH]c2ccc(N)cc2c1/C=C/C(=O)c1ccncc1 [402g, trans-3-(5-amino-2-methylindol-3-yl)-1-(4-pyridinyl)-2-propen-1-one]
[2]; 10 μM
  cell morphology / vacuolization: did cause vacuolization after 48 h
[3]; U251
  growth inhibitory (GI) activity, in words: no GI activity in the concentration range tested

## NCc1ccc2[nH]cc(/C=C/C(=O)c3ccncc3)c2c1 [402i, trans-3-(5-aminomethylindol-3-yl)-1-(4-pyridinyl)-2-propen-1-one]
[2]; [5]
  cell morphology / vacuolization: completely inactive in both growth inhibition and vacuolization assays
[3]; U251
  growth inhibitory (GI) activity, in words: completely inactive in both growth inhibition and vacuolization assays

## O=C(/C=C/c1c[nH]c2ccccc12)c1ccccc1 [compound 9, trans-3-(1H-indol-3-yl)-1-phenyl-2-propen-1-one]
[4]
  methuosis-inducing activity compared with compound 2 (MIPP): relatively ineffective at inducing methuosis compared with MIPP

## O=C(/C=C/c1c[nH]c2ccccc12)c1ccccn1 [compound 10, trans-3-(1H-indol-3-yl)-1-(2-pyridinyl)-2-propen-1-one]
[4]
  methuosis-inducing activity compared with compound 2 (MIPP): relatively ineffective at inducing methuosis compared with MIPP

## O=C(/C=C/c1c[nH]c2ccccc12)c1cccnc1 [compound 11, trans-3-(1H-indol-3-yl)-1-(3-pyridinyl)-2-propen-1-one]
[4]
  methuosis-inducing activity compared with compound 2 (MIPP): relatively ineffective at inducing methuosis compared with MIPP

## COc1ccc2[nH]cc(/C=C/C(=O)c3ccncc3)c2c1 [compound 13, trans-3-(5-methoxy-1H-indol-3-yl)-1-(4-pyridinyl)-2-propen-1-one]
[1]
  cell viability, in words: only minimally affected
  viability at 10 µM: 91.2 ± 0.7%
[2]; 10 μM
  cell morphology / vacuolization: extensively vacuolated
[3]; U-251, 48 h, read-out: GI50
  GI50: 18.6 µM

## O=C(/C=C/c1c[nH]c2ccc(O)cc12)c1ccncc1 [compound 15, trans-3-(5-hydroxy-1H-indol-3-yl)-1-(4-pyridinyl)-2-propen-1-one]
[4]
  methuosis-inducing activity compared with compound 2 (MIPP): greatly reduced activity of the compound in all of the assays

## COc1ccc2[nH]cc(/C=C/C(=O)c3cccnc3)c2c1 [compound 16, trans-3-(5-methoxy-1H-indol-3-yl)-1-(3-pyridinyl)-2-propen-1-one]
[4]
  methuosis-inducing activity compared with compound 2 (MIPP): Loss of activity

## COc1ccc2[nH]cc(/C=C/C(=O)c3cnccn3)c2c1 [compound 17, trans-3-(5-methoxy-1H-indol-3-yl)-1-(pyrazine)-2-propen-1-one]
[4]
  methuosis-inducing activity compared with compound 2 (MIPP): Loss of activity

## COc1ccc2c(c1)c(/C=C/C(=O)c1ccncc1)cn2C [compound 20, trans-3-(5-methoxy-1-methyl-Indol-3-yl)-1-(4-pyridinyl)-2-propen-1-one]
[4]
  methuosis-inducing activity compared with compound 2 (MIPP): induced some cytoplasmic vacuolization but had modest effects on cell viability

## O=C(/C=C/c1c[nH]c2ccc(O)cc12)c1ccncc1 [compound 21, trans-3-(5-hydroxy-1H-indol-3-yl)-1-(4-pyridinyl)-2-propen-1-one]
[4]
  methuosis-inducing activity compared with compound 2 (MIPP): marked reduction in activity compared to the 5-methoxy compound 19

## CCc1[nH]c2ccc(OC)cc2c1/C=C/C(=O)c1ccncc1 [compound 107a, trans-3-(2-ethyl-5-methoxyindol-3-yl)-1-(4-pyridinyl)-2-propen-1-one]
[1]
  cell viability, in words: substantial loss of cell viability
  viability at 10 µM: 34.6 ± 1.1%
[2]; 10 μM
  cell morphology / vacuolization: morphological effects indistinguishable from those observed with the same concentration of MOMIPP
[3]; U-251, 48 h, read-out: GI50
  GI50: 3.2 µM
[3]; U-251, U251, dose-response curves repeated six more times (Table 1 footnote g), read-out: GI50, means (±SD) for all seven determinations
  GI50: 2.8 µM
[3]; U251
  growth inhibitory (GI) activity, in words: not statistically different from the MOMIPP

## COc1ccc2[nH]c(C)c(/C=C/C(=O)c3cccnc3)c2c1 [meta-MOMIPP, trans-3-(5-methoxy-2-methylindol-3-yl)-1-(3-pyridinyl)-2-propen-1-one]
[1]
  viability at 10 µM: 96.2 ± 1.3%
[2]; 10 μM
  cell morphology / vacuolization: did not accumulate vacuoles
[3]; U-251, 48 h, read-out: GI50
  GI50: 16.9 µM

## trans-3-[5-((4-carboxyphenyl)-methoxy)-1H-Indol-3-yl)]-1-(4-pyridinyl)-2-propen-1-one [compound 27]
[4]
  methuosis-inducing activity compared with compound 2 (MIPP): neither compound 26 nor compound 27 induced methuosis

## trans-3-[5-((4-methylbenzoate)methoxy)-1H-Indol-3-yl)]-1-(4-pyridinyl)-2-propen-1-one [compound 26]
[4]
  methuosis-inducing activity compared with compound 2 (MIPP): neither compound 26 nor compound 27 induced methuosis
